Measured values published in patent US7064204B2, “Pharmaceutically active compounds having a tricyclic pyrazolotriazolopyrimidine ring structure and methods of use” (King Pharmacueticals Reserch and Development, Inc., priority 2002, dated 2006).
Counter-ions that a name gives are not always drawn. Blank lines part the entries; values can stand above or below the compound they belong to.

Legend:
[1] = biological target: T1, human A1 adenosine receptors (Homo sapiens, UniProt P30542); experiment: Displacement of [3H]DPCPX binding at human A1 adenosine receptors expressed in CHO cells
T1 construct: expressed in transfected cells; host or cells: CHO cells
T1 sequence (P30542 1-326): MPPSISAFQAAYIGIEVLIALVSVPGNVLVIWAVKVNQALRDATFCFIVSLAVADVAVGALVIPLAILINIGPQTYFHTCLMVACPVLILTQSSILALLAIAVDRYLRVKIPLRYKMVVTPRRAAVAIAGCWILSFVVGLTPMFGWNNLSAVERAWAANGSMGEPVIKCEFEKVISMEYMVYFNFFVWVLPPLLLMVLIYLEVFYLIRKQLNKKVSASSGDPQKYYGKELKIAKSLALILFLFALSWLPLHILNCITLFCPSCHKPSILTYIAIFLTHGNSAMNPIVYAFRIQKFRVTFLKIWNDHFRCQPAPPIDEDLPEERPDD

[2] = biological target: T2, human A2B adenosine receptors (Homo sapiens, UniProt P29275); experiment: Displacement of [3H]DPCPX binding at human A2B adenosine receptors expressed in HEK-293 cells
T2 construct: expressed in transfected cells; host or cells: HEK-293 cells
T2 sequence (P29275 1-332): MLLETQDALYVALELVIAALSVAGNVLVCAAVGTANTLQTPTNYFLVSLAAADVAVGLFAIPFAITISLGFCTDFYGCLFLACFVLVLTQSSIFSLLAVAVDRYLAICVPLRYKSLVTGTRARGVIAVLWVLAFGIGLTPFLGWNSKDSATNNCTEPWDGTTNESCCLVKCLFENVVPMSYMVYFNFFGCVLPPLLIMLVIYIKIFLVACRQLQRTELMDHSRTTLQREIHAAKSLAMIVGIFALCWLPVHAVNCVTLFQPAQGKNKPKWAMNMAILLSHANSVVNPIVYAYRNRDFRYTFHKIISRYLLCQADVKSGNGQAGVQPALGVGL

[3] = biological target: T3, human A2A adenosine receptors (Homo sapiens, UniProt P29274); experiment: Displacement of [3H]SCH58261 binding at human A2A adenosine receptors expressed in CHO cells; details: for Ki: CHO cells; for affinity for A2A adenosine receptor subtype / selectivity for A2A versus the other adenosine receptor subtypes: in words; for affinity for A2A adenosine receptor subtype: discussion of Tables 2 and 3
T3 construct: expressed in transfected cells; host or cells: CHO cells
T3 sequence (P29274 whole entry): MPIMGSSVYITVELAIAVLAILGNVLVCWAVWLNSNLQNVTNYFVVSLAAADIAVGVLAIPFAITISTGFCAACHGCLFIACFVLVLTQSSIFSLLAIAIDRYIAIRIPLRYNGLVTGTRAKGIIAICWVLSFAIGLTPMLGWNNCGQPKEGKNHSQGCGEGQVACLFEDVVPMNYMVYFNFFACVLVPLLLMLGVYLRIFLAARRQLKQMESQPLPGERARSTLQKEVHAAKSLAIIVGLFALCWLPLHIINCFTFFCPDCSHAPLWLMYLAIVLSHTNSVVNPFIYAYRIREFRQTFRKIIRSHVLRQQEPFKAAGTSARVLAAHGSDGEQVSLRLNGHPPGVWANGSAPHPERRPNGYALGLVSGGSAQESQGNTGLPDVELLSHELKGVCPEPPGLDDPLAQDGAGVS

[4] = biological target: T4, human A3 adenosine receptors (Homo sapiens, UniProt P0DMS8); experiment: Displacement of [3H]MRE 3008F20 binding at human A3 adenosine receptors expressed in CHO cells; parameters: expressed in transfected cells; host or cells: CHO cells; details: for affinity for / interaction with A3 adenosine receptor subtype: discussion of Tables 2 and 3
T4 sequence (P0DMS8 1-318): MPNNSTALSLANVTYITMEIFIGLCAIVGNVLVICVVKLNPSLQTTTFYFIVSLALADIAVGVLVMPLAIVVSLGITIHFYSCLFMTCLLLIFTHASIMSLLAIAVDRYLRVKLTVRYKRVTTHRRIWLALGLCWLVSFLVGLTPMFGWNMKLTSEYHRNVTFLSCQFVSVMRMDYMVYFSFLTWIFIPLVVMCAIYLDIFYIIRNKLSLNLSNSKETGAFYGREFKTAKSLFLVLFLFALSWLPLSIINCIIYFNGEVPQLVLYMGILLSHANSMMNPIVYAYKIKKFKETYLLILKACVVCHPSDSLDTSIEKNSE

[5] = Table 2, footnote b: [3H]DPCPX, human A1
[6] = Table 2, footnote b: [3H]SCH58261, human A2A
[7] = Table 2, footnote b: [3H]MRE 3008F20, human A3, CHO cells
[8] = Table 3: [3H]DPCPX, human A1, CHO cells
[9] = Table 3: [3H]DPCPX, HEK-293 cells
[10] = Table 3: [3H]MRE 3008F20, human A3, CHO cells
[11] = Table 3: [3H]SCH58261, human A2A

SMILES: Nc1nc2c(cnn2CCc2ccccc2)c2nc(-c3ccc(OCC(=O)O)cc3)nn12 [Compound 7, [4-(5-Amino-7-phenethyl-7H-pyrazolo[4,3-e][1,2,4]triazolo[1,5-c]pyrimidin-2-yl)-phenoxy]-acetic acid]
Ki [1, 5]: > 1000 nM | Ki ([2]; Table 2, footnote b: [3H]DPCPX): > 1000 nM | Ki [3, 6]: > 1000 nM | Ki [4, 7]: > 1000 nM

SMILES: CN1CCN(c2c3c(nc(N)n4nc(-c5ccco5)nc34)nn2C)CC1 [Compound 40, 2-Furan-2-yl-8-methyl-9-(4-methyl-piperazin-1-yl)-8H-pyrazolo[4,3-e][1,2,4]triazolo[1,5-c]pyrimidin-5-ylamine]
Ki [1, 8]: 30 nM | Ki [2, 9]: 35 nM | Ki [3, 11]: 156 nM | affinity for A2A adenosine receptor subtype [3]: useless

SMILES: CSc1c2c(nc(N)n3nc(-c4ccco4)nc23)nn1C [Compound 41, 2-Furan-2-yl-8-methyl-9-methylsulfanyl-8H-pyrazolo[4,3-e][1,2,4]triazolo[1,5-c]pyrimidin-5-ylamine]
Ki [1, 8]: 8.4 nM | Ki [2, 9]: 10.3 nM | Ki [3, 11]: 1.2 nM | selectivity for A2A versus the other adenosine receptor subtypes [3]: low selectivity | affinity for A2A adenosine receptor subtype [3]: good affinity | Ki [4, 10]: 35 nM

SMILES: CCCSc1c2c(nc(N)n3nc(-c4ccco4)nc23)nn1C [Compound 42, 2-Furan-2-yl-8-methyl-9-propylsulfanyl-8H-pyrazolo[4,3-e][1,2,4]triazolo[1,5-c]pyrimidin-5-ylamine]
Ki [1, 8]: 9 nM | Ki [2, 9]: 69 nM | Ki [3, 11]: 2.1 nM | selectivity for A2A versus the other adenosine receptor subtypes [3]: increases the selectivity | affinity for A2A adenosine receptor subtype [3]: maintains the A2A affinity | Ki [4, 10]: 224 nM

SMILES: CSc1c2c(nc(N)n3nc(-c4ccco4)nc23)nn1CCCc1ccccc1 [Compound 43, 2-Furan-2-yl-9-methylsulfanyl-8-(3-phenyl-propyl)-8H-pyrazolo[4,3-e][1,2,4]triazolo[1,5-c]pyrimidin-5-ylamine]
Ki [1, 8]: 175 nM | Ki [2, 9]: 31 nM | Ki [3, 11]: 22 nM | affinity for A2A adenosine receptor subtype [3]: decrease of A2A interaction

SMILES: CSc1c2c(nc(NC(=O)Cc3ccc4c(c3)OCO4)n3nc(-c4ccco4)nc23)nn1C [Compound 49, 2-Benzo[1,3]dioxol-5-yl-N-(2-furan-2-yl-8-methyl-9-methylsulfanyl-8H-pyrazolo[4,3-e][1,2,4]triazolo[1,5-c]pyrimidin-5-yl)-acetamide]
Ki [1, 8]: 70 nM | Ki [2, 9]: 30 nM | Ki [3, 11]: 4.1 nM | Ki [4, 10]: 110 nM | affinity for / interaction with A3 adenosine receptor subtype ([4]; in words): decreased

SMILES: Cn1nc2nc(N)n3nc(-c4ccco4)nc3c2c1Nc1ccc(O)cc1 [Compound 52, 4-(5-Amino-2-furan-2-yl-8-methyl-8H-pyrazolo[4,3-e][1,2,4]triazolo[1,5-c]pyrimidin-9-ylamino)-phenol]
Ki [1, 8]: 666 nM | affinity for A2A adenosine receptor subtype [3]: useless | Ki [4, 10]: 308 nM

SMILES: CCNc1c2c(nc(N)n3nc(-c4ccco4)nc23)nn1C [Compound 53, N9-Ethyl-2-furan-2-yl-8-methyl-8H-pyrazolo[4,3-e][1,2,4]triazolo[1,5-c]pyrimidine-5,9-diamine hydrochloride salt]
Ki ([1]; Table 3: [3H]DPCPX, human A1, CHO cells, hydrochloride salt): 41 nM | Ki ([2]; Table 3: [3H]DPCPX, HEK-293 cells, hydrochloride salt): 36 nM | Ki ([4]; Table 3: [3H]MRE 3008F20, human A3, CHO cells, hydrochloride salt): 25 nM

SMILES: CN1CCN(c2c3c(nc(N)n4nc(-c5ccco5)nc34)nn2C)CC1 [Compound 54, 2-Furan-2-yl-8-methyl-9-(4-methyl-piperazin-1-yl)-8H-pyrazolo[4,3-e][1,2,4]triazolo[1,5-c]pyrimidin-5-ylamine dihydrochloride salt]
Ki ([1]; Table 3: [3H]DPCPX, human A1, CHO cells, dihydrochloride salt): 48 nM | Ki ([2]; Table 3: [3H]DPCPX, HEK-293 cells, dihydrochloride salt): 12 nM | Ki ([3]; Table 3: [3H]SCH58261, human A2A, dihydrochloride salt): 135 nM

Second part, the compound after the results:

Ki [1, 5]: > 1000 nM | Ki ([2]; Table 2, footnote b: [3H]DPCPX): > 1000 nM | Ki [3, 6]: > 1000 nM | Ki [4, 7]: 348 nM | selectivity for A3 versus the other adenosine receptor subtypes ([4]; in words): complete selectivity | affinity for / interaction with A3 adenosine receptor subtype ([4]; in words): poor affinity
SMILES: CCOc1ccccc1-c1nc2c3cnn(CCc4ccccc4)c3nc(N)n2n1 [Compound 5c, 2-(2-Ethoxy-phenyl)-7-phenethyl-7H-pyrazolo[4,3-e][1,2,4]triazolo[1,5-c]pyrimidin-5-ylamine]

Ki [1, 5]: > 1000 nM | Ki ([2]; Table 2, footnote b: [3H]DPCPX): > 1000 nM | Ki [3, 6]: > 1000 nM | Ki [4, 7]: > 1000 nM
SMILES: CCOC(=O)COc1ccc(-c2nc3c4cnn(CCc5ccccc5)c4nc(N)n3n2)cc1 [Compound 6, [4-(5-Amino-7-phenethyl-7H-pyrazolo[4,3-e][1,2,4]triazolo[1,5-c]pyrimidin-2-yl)-phenoxy]-acetic acid ethyl ester]

Ki [1, 5]: > 1000 nM | Ki ([2]; Table 2, footnote b: [3H]DPCPX): > 1000 nM | Ki [3, 6]: > 1000 nM | Ki [4, 7]: > 1000 nM
SMILES: Nc1nc2c(cnn2CCc2ccccc2)c2nc(-c3ccc(OCC(=O)Nc4ccc(I)cc4)cc3)nn12 [Compound 8, 2-[4-(5-Amino-7-phenethyl-7H-pyrazolo[4,3-e][1,2,4]triazolo[1,5-c]pyrimidin-2-yl)-phenoxy]-N-(4-iodo-phenyl)-acetamide]

Ki [1, 8]: 50 nM | Ki [2, 9]: 81 nM | affinity for A2A adenosine receptor subtype [3]: good affinity | Ki [4, 10]: 225 nM
SMILES: CCNc1c2c(nc(N)n3nc(-c4ccco4)nc23)nn1C [Compound 38, N9-Ethyl-2-furan-2-yl-8-methyl-8H-pyrazolo[4,3-e][1,2,4]triazolo[1,5-c]pyrimidiine-5,9-diamine]

Ki [1, 8]: 260 nM | affinity for A2A adenosine receptor subtype [3]: useless
SMILES: COc1ccc(Nc2c3c(nc(N)n4nc(-c5ccco5)nc34)nn2C)cc1 [Compound 39, 2-Furan-2-yl-N9-(4-methoxy-phenyl)-8-methyl-8H-pyrazolo[4,3-e][1,2,4]triazolo[1,5-c]pyrimidine-5,9-diamine]

Ki [1, 8]: 150 nM | Ki [2, 9]: 37 nM | affinity for A2A adenosine receptor subtype [3]: decrease of A2A affinity | Ki [4, 10]: 17 nM | affinity for / interaction with A3 adenosine receptor subtype ([4]; in words): good increase in A3 affinity
SMILES: CCNc1c2c(nc(NC(=O)Nc3ccc(OC)cc3)n3nc(-c4ccco4)nc23)nn1C [Compound 44, 1-(9-Ethylamino-2-furan-2-yl-8-methyl-8H-pyrazolo[4,3-e][1,2,4]triazolo[1,5-c]pyrimidin-5-yl)-3-(4-methoxy-phenyl)-urea]

Ki [1, 8]: 316 nM | Ki [2, 9]: 26 nM
SMILES: COc1ccc(NC(=O)Nc2nc3nn(C)c(N4CCN(C)CC4)c3c3nc(-c4ccco4)nn23)cc1 [Compound 45, 1-[2-Furan-2-yl-8-methyl-9-(4-methyl-piperazin-1-yl)-8H-pyrazolo[4,3-e][1,2,4]triazolo[1,5-c]pyrimidin-5-yl]-3-(4-methoxy-phenyl)-urea]

Ki [1, 8]: 70 nM | Ki [2, 9]: 24 nM | Ki [3, 11]: 3.1 nM | Ki [4, 10]: 212 nM | affinity for / interaction with A3 adenosine receptor subtype ([4]; in words): decreased
SMILES: COc1ccc(NC(=O)Nc2nc3nn(C)c(SC)c3c3nc(-c4ccco4)nn23)cc1 [Compound 46, 1-(2-Furan-2-yl-8-methyl-9-methylsulfanyl-8H-pyrazolo[4,3-e][1,2,4]triazolo[1,5-c]pyrimidin-5-yl)-3-(4-methoxy-phenyl)-urea]

Ki [1, 8]: 80 nM | Ki [2, 9]: 45 nM | Ki [3, 11]: 15 nM | affinity for A2A adenosine receptor subtype [3]: maintains A2A affinity | affinity for / interaction with A3 adenosine receptor subtype ([4]; in words): decreased
SMILES: COc1ccc(CC(=O)Nc2nc3nn(C)c(SC)c3c3nc(-c4ccco4)nn23)cc1 [Compound 47, N-(2-Furan-2-yl-8-methyl-9-methylsulfanyl-8H-pyrazolo[4,3-e][1,2,4]triazolo[1,5-c]pyrimidin-5-yl)-2-(4-methoxy-phenyl)-acetamide]

Ki [1, 8]: 780 nM | Ki [2, 9]: 190 nM | Ki [3, 11]: 50 nM | affinity for A2A adenosine receptor subtype [3]: maintains A2A affinity | affinity for / interaction with A3 adenosine receptor subtype ([4]; in words): decreased
SMILES: CSc1c2c(nc(NC(=O)Cc3ccc(CC(C)C)cc3)n3nc(-c4ccco4)nc23)nn1C [Compound 48, N-(2-Furan-2-yl-8-methyl-9-methylsulfanyl-8H-pyrazolo[4,3-e][1,2,4]triazolo[1,5-c]pyrimidin-5-yl)-2-(4-isobutyl-phenyl)-acetamide]
